Measured values published in US9956205B2, “Polymorphic forms of 2-(5-bromo-4-(4-cyclopropylnaphthalen-1-yl)-4H-1,2,4-triazol-3-ylthio)acetic acid and uses thereof” (Ardea Biosciences, Inc., priority 2010, dated 2018).
≈ marks a conversion by molar mass, not a printed value.

Tests used:
Format in all cases: physicochemical
[1] = Solubility in acetate buffer (25 mM, pH 5), assayed by HPLC; conditions: 25 °C, pH 5, aqueous buffer, thermodynamic from solid; for solubility at 5 day: Day 5; for solubility at 7 day: Day 7
Protocol: (§1) Form 1 (˜25 mg) and acetate buffer (25 mM, pH 5, 4 mL), prepared with and without sodium chloride (ionic strength adjusted to=0.1M), were placed in a glass vial which was sealed and placed on a laboratory rotator in a 25° C. incubator. After 1, 5, and 7 days the samples were filtered and assayed by HPLC.
as §1, with “Form 2” for “Form 1”

[2] = Solid held in equilibrium with its saturated solvent solution at 60° C.; conditions: saturated acetone solution, 6 days
[3] = Gravimetric vapor sorption (GVS) study; conditions: at high humidity
Source text: FIG. 12 illustrates a GVS study of form 1 and form 2. […] This property of decreased hygroscopicity greatly aids in the preparation of solid pharmaceutical dosage forms.

[4] = Drug substance stability of packaged solid; conditions: 1 month, double LDPE bags inside HDPE container
Protocol: Form 2 of 2-(5-bromo-4-(4-cyclopropylnaphthalen-1-yl)-4H-1,2,4-triazol-3-ylthio)acetate was tested under various conditions to determine drug substance stability. […] Packaging was in a double low density polyethylene plastic bags inside a HDPE container.

solubility at 5 day ([1]; pH 5, NaCl (I = 0.1)) | solubility at 7 day ([1]; pH 5, NaCl (I = 0.1)) | solubility at 1 day ([1]; pH 5, No NaCl, Day 1) | solubility at 5 day ([1]; pH 5, No NaCl) | solubility at 7 day ([1]; pH 5, No NaCl) | outcome of equilibration with saturated solution [2] | adsorption (hygroscopicity) by GVS [3] | degradation of packaged drug substance ([4]; 25° C.-60% RH) | degradation of packaged drug substance ([4]; 40° C.-75% RH) | SMILES
257 µg/mL (≈ 635 µM) | 304 µg/mL (≈ 753 µM) | 265 µg/mL (≈ 656 µM) | 213 µg/mL (≈ 528 µM) | 157 µg/mL (≈ 388 µM) | decomposition | < 0.2 % w/w |  |  | O=C(O)CSc1nnc(Br)n1-c1ccc(C2CC2)c2ccccc12 [Form 1, 2-(5-bromo-4-(4-cyclopropylnaphthalen-1-yl)-4H-1,2,4-triazol-3-ylthio)acetic acid]
 |  |  |  |  |  | < 0.1 % w/w | No degradation | No degradation | O=C(O)CSc1nnc(Br)n1-c1ccc(C2CC2)c2ccccc12 [Form 2, 2-(5-bromo-4-(4-cyclopropylnaphthalen-1-yl)-4H-1,2,4-triazol-3-ylthio)acetic acid]
